Assay [1] addresses BACE 1 (beta secretase enzyme) (Homo sapiens (Human), UniProt P56817). Briefly: In vitro enzymatic BACE FRET assay. To be noted: average IC50. It counts as biochemical. The gist of the method:
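The enzyme was tested in 0.05 M acetate, pH 4.2, with 10% DMSO final and 100 uM genapol. The reaction was started with 50 nM quenched FRET peptide substrate, incubated one hour and stopped with Tris to neutral pH. Cleavage was read as fluorescence ([…]).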

Assay [2] deals with Aβ40 in conditioned medium of cells stably expressing Amyloid Precursor Protein (APP). Briefly: In vitro BACE cell-based assay (HEK cell assay, Aβ40 sandwich ELISA). To be noted: Homo sapiens, HEK293; average IC50, Aβ40, 24 h incubation. The gist of the method:
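Secreted Aβ40 was quantified by sandwich ELISA (pAb40 capture, biotinylated 6E10 detection, Europium time-resolved fluorescence). IC50 derived from percent inhibition versus concentration.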
(ELISA stands for enzyme-linked immunosorbent assay.)

For assay [3], the target named is Cathepsin D (Homo sapiens (Human), UniProt P07339). Briefly: In vitro enzymatic Cat D (Cathepsin D) FRET assay. It counts as biochemical. To be noted: average IC50. The gist of the method: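 CHO-expressed recombinant enzyme in 0.05 M citrate pH 3.5, 5 mM CHAPS, 10% DMSO final; reaction started with 20 nM quenched-peptide FRET substrate (cleavage site spanned by fluorophore/quencher), 1 h incubation.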

Assay [4] concerns Abeta 40. Briefly: In vivo inhibition of beta-secretase: Abeta 40 reduction in CSF and brain of the rat. To be noted: 10 mpk, after 4 hrs. The source says:
In Vivo Inhibition of Beta-Secretase
Several animal models, including mouse, rat, dog, and monkey, may be used to screen for inhibition of beta-secretase activity in vivo following administration of a test compound sample. Animals used in this invention can be wild type, transgenic, or gene knockout animals. For example, the Tg2576 mouse model, prepared and conducted as described in Hsiao et al., 1996, Science 274, 99-102, and other non-transgenic or gene knockout animals are useful to analyze in vivo inhibition of Amyloid beta peptide (Abeta) production in the presence of inhibitory test compounds. Generally, 2 to 18 month old Tg2576 mice, gene knockout mice or non-transgenic animals are administered test compounds formulated in vehicles, such as cyclodextran, phosphate buffers, hydroxypropyl methylcellulose or other suitable vehicles. One to twenty-four hours following the administration of compound, animals are sacrificed, and brains as well as cerebrospinal fluid (CSF) and plasma are removed for analysis of A-beta levels and drug or test compound concentrations (Dovey et al., 2001, Journal of Neurochemistry, 76, 173-181) Beginning at time 0, animals are administered by oral gavage, or other means of delivery such as intravenous injection, an inhibitory test compound of up to 100 mg/kg in a standard, conventional formulation, such as 2% hydroxypropyl methylcellulose, 1% Tween80. A separate group of animals receive 2% hydroxypropyl methylcellulose, 1% Tween80 alone, containing no test compound, and serve as a vehicle-control group. At the end of the test period, animals are sacrificed and brain tissues, plasma or cerebrospinal fluid are collected. Brains are either homogenized in 10 volumes (w/v) of 0.2% diethylamine (DEA) in 50 mM NaCl (Best et al., 2005, Journal of Pharmacology and Experimental Therapeutics, 313, 902-908), or in 10 volumes of 0.5% TritonX-100 in Tris-buffered saline (pH at about 7.6). Homogenates are centrifuged at 355,000 g, 4° C. for 30 minutes. CSF or brain supernatants are then analyzed for the presence of A-beta peptide by specific sandwich ELISA assays based on ECL (Electrochemiluminescence) technology. For example, rat Abeta40 is measured using biotinylated-4G8 (Signet) as a capture antibody and Fab40 (an in-house antibody specific to the C-terminal of Abeta40) as a detection antibody. For example, 4 hours after administration of 30 mg/kg oral dose of the test compound in 2% hydroxypropyl methylcellulose, 1% Tween80 (pH2.2) to 200 g male Sprague Dawley rats, amyloid beta peptide levels are measured for reduction by X % and Y % in cerebrospinal fluid and brain, respectively, when compared to the levels measured in the vehicle-treated rats.
• Oral: 2% HPMC, 1% Tween80, pH 2.2 • IV: 5% EtOH, 45% Propylene glycol in 5% Dextrose
The compounds of the invention may be shown to reduce the formation and/or deposition of amyloid beta peptide in the cerebrospinal fluid (CSF) as well as in the brain of a mouse or rat at either 3 mpk, 10 mpk or 30 mpk (mpk=mg compound per kg weight of the animal) dosing concentrations after 4 hrs.

[5] abbreviates: Abeta 40, rat CSF, read-out: % reduction of rat CSF levels at 10 pmk.
Setting [6] is: Abeta 40, rat brain, read-out: % reduction of rat brain levels at 10 mpk.

The values that follow come from patent US9296759B2, “Amino-oxazine and amino-dihydrothiazine compounds as beta-secretase modulators and methods of use” (AMGEN INC., priority 2011, dated 2016).

Read-outs that look alike come from different tables or passages of the source.

Sequence of BACE 1 (beta secretase enzyme) (P56817 46-501): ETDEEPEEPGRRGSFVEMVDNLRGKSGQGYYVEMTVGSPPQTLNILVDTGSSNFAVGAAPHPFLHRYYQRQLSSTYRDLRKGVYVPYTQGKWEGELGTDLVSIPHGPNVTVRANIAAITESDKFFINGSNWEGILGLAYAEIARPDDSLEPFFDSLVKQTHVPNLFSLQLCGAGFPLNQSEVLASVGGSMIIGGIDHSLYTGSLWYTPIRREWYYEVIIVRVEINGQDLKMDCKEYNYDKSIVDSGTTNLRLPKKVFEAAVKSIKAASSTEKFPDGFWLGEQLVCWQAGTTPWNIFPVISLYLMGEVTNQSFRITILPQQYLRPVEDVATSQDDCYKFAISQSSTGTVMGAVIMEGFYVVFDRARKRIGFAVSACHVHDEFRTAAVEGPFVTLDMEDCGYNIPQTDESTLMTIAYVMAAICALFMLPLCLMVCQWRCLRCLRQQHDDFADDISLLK
Sequence of Cathepsin D (P07339 65-412, species assumed): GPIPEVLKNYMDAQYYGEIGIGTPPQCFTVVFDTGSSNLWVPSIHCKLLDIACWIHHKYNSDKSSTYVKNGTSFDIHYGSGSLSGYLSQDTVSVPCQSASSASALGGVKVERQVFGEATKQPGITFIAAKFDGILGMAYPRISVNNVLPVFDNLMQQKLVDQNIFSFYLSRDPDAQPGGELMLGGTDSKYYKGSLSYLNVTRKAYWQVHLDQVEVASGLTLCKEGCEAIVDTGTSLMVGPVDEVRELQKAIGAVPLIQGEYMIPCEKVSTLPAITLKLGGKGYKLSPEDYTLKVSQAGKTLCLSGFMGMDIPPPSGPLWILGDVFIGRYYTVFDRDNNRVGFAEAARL

Broadly, the IC50 is the concentration needed to halve the response being measured. `NC1=N[C@@]2(CCO1)c1cc(NC(=O)c3ccc(Cl)cn3)ccc1Oc1ncc(Br)cc12` [Example 34, N-((5S)-2′-amino-3-bromo-5′,6′-dihydrospiro[chromeno[2,3-b]pyridine-5,4′-[1,3]oxazin]-7-yl)-5-chloro-2-pyridinecarboxamide]: the IC50 in assay [1] was 13.6 nM; in assay [2], 7 nM; in assay [3], 245000 nM. In addition, the inhibition in vivo at 10 mg/kg turned out to be 64% in assay [4] (setting [5]) and 17% in assay [4] (setting [6]).
On to `NC1=N[C@@]2(CCO1)c1cc(NC(=O)c3ccc(Cl)cn3)ccc1Oc1c2cc(C2CC2)nc1F` [Example 40, N-((5S)-2′-amino-3-cyclopropyl-1-fluoro-5′,6′-dihydrospiro[chromeno[2,3-c]pyridine-5,4′-[1,3]oxazin]-7-yl)-5-chloro-2-pyridinecarboxamide], for which the IC50 in assay [1] was 2.4 nM; in assay [2], 3.4 nM. For the same compound, the inhibition in vivo at 10 mg/kg in assay [4] (setting [5]) stood at 75%; in assay [4] (setting [6]) it was 58%.
For `NC1=N[C@@]2(CCO1)c1cc(NC(=O)c3ccc(Cl)cn3)ccc1Oc1ncc(C3=CCOCC3)cc12` [Example 45, N-((5S)-2′-amino-3-(3,6-dihydro-2H-pyran-4-yl)-5′,6′-dihydrospiro[chromeno[2,3-b]pyridine-5,4′-[1,3]oxazin]-7-yl)-5-chloro-2-pyridinecarboxamide], the IC50 was found to be 0.6 nM in assay [2] and 341000 nM in assay [3]. Further, the inhibition in vivo at 10 mg/kg in assay [4] (setting [5]) is 27%; in assay [4] (setting [6]) it was 14%.
Take `COc1cnc(C(=O)Nc2ccc3c(c2)[C@@]2(CCOC(N)=N2)c2cc(C4=CCCOC4)ncc2O3)cn1` [Example 58, N-((5S)-2′-amino-3-(5,6-dihydro-2H-pyran-3-yl)-5′,6′-dihydrospiro[chromeno[2,3-c]pyridine-5,4′-[1,3]oxazin]-7-yl)-5-methoxy-2-pyrazinecarboxamide]: the IC50 in assay [1] was found to be 9.4 nM; in assay [2], 1.1 nM. For the same compound, the inhibition in vivo at 10 mg/kg in assay [4] (setting [5]) amounted to 55%; in assay [4] (setting [6]), 36%.
The like results for `CC(C)(C)C#Cc1cc2c(cn1)Oc1ccc(NC(=O)c3ccc(Cl)cn3)cc1[C@@]21CCOC(N)=N1` [Example 82, N-((5S)-2′-amino-3-(3,3-dimethyl-1-butyn-1-yl)-5′,6′-dihydrospiro[chromeno[2,3-c]pyridine-5,4′-[1,3]oxazin]-7-yl)-5-chloro-2-pyridinecarboxamide] were, in that order, 10 nM, 1.9 nM, 67% and 42%.
In the case of `COc1cnc(C(=O)Nc2ccc3c(c2)[C@@]2(CCOC(N)=N2)c2cc(-c4ccnc(F)c4)cc(F)c2O3)cn1` [Example 95, N-((4S)-2-amino-5′-fluoro-7′-(2-fluoro-4-pyridinyl)-5,6-dihydrospiro[1,3-oxazine-4,9′-xanthen]-2′-yl)-5-methoxy-2-pyrazinecarboxamide], the IC50 amounted to 6.5 nM in assay [1] and 5.6 nM in assay [2]. In addition, the inhibition in vivo at 10 mg/kg came out at 54% in assay [4] (setting [5]) and 21% in assay [4] (setting [6]).
In the case of `NC1=N[C@@]2(CCO1)c1cc(NC(=O)c3ccc(F)cn3)ccc1Oc1c2cc(-c2ccnc(F)c2)nc1F` [Example 97, N-((5S)-2′-amino-1-fluoro-3-(2-fluoro-4-pyridinyl)-5′,6′-dihydrospiro[chromeno[2,3-c]pyridine-5,4′-[1,3]oxazin]-7-yl)-5-fluoro-2-pyridinecarboxamide], the IC50 turned out to be 1.2 nM in assay [1] and 1.1 nM in assay [2]. In addition, the inhibition in vivo at 10 mg/kg in assay [4] (setting [5]) was found to be 63%; in assay [4] (setting [6]), 44%.
On to `COc1cnc(C(=O)Nc2ccc3c(c2)[C@@]2(CCOC(N)=N2)c2cc(C4=CCCOC4)cc(F)c2O3)cn1` [Example 106, N-((4S)-2-amino-7′-(5,6-dihydro-2H-pyran-3-yl)-5′-fluoro-5,6-dihydrospiro[1,3-oxazine-4,9′-xanthen]-2′-yl)-5-methoxy-2-pyrazinecarboxamide], for which the IC50 in assay [2] came to 1.6 nM; in assay [3] it was 107000 nM. Further, the inhibition in vivo at 10 mg/kg in assay [4] (setting [5]) is 43%; in assay [4] (setting [6]) it was 16%.
Consider `NC1=N[C@@]2(CCS1)c1cc(NC(=O)c3ccc(F)cn3)ccc1Oc1c2cc(C2=CCOCC2)nc1F` [Example 116, N-((5S)-2′-amino-3-(3,6-dihydro-2H-pyran-4-yl)-1-fluoro-5′,6′-dihydrospiro[chromeno[2,3-c]pyridine-5,4′-[1,3]thiazin]-7-yl)-5-fluoro-2-pyridinecarboxamide], for which the IC50 is 1 nM in assay [1] and 0.6 nM in assay [2]. The values for the inhibition in vivo at 10 mg/kg in assay [4] (setting [5]) and in assay [4] (setting [6]) were 73% and 56%, respectively.
As for `NC1=N[C@@]2(CCS1)c1cc(NC(=O)c3ccc(Cl)cn3)ccc1Oc1c2cc(C2=CCOCC2)nc1F` [Example 117, N-((5S)-2′-amino-3-(3,6-dihydro-2H-pyran-4-yl)-1-fluoro-5′,6′-dihydrospiro[chromeno[2,3-c]pyridine-5,4′-[1,3]thiazin]-7-yl)-5-chloro-2-pyridinecarboxamide], the IC50 is 0.6 nM in assay [2] and 133000 nM in assay [3]. Moreover, the values for the inhibition in vivo at 10 mg/kg in assay [4] (setting [5]) and in assay [4] (setting [6]) were 80% and 70%, respectively.
`NC1=N[C@@]2(CCS1)c1cc(NC(=O)c3ncc(Cl)cc3F)ccc1Oc1c2cc(C2=CCOCC2)nc1F` [Example 119, N-((5S)-2′-amino-3-(3,6-dihydro-2H-pyran-4-yl)-1-fluoro-5′,6′-dihydrospiro[chromeno[2,3-c]pyridine-5,4′-[1,3]thiazin]-7-yl)-5-chloro-3-fluoro-2-pyridinecarboxamide]: the figures for the IC50 in assay [1], in assay [2] and in assay [3] were 2.6 nM, 0.6 nM and 311000 nM, respectively.
Consider `Cc1cc(Br)cnc1C(=O)Nc1ccc2c(c1)[C@@]1(CCSC(N)=N1)c1cc(C3=CCOCC3)nc(F)c1O2` [Example 120, N-((5S)-2′-amino-3-(3,6-dihydro-2H-pyran-4-yl)-1-fluoro-5′,6′-dihydrospiro[chromeno[2,3-c]pyridine-5,4′-[1,3]thiazin]-7-yl)-5-bromo-3-methyl-2-pyridinecarboxamide], for which the half-maximal inhibitory concentration (IC50) came out at 1.4 nM in assay [1], 0.5 nM in assay [2] and 88300 nM in assay [3].
The like results for `COc1cnc(C(=O)Nc2ccc3c(c2)[C@@]2(CCSC(N)=N2)c2cc(C4=CCOCC4)nc(F)c2O3)c(C)c1` [Example 121, N-((5S)-2′-amino-3-(3,6-dihydro-2H-pyran-4-yl)-1-fluoro-5′,6′-dihydrospiro[chromeno[2,3-c]pyridine-5,4′-[1,3]thiazin]-7-yl)-5-methoxy-3-methyl-2-pyridinecarboxamide] were, in that order, 5.4 nM, 1.8 nM and 159000 nM.
As to `Cc1cc(Cl)cnc1C(=O)Nc1ccc2c(c1)[C@@]1(CCSC(N)=N1)c1cc(C3=CCOCC3)nc(F)c1O2` [Example 122, N-((5S)-2′-amino-3-(3,6-dihydro-2H-pyran-4-yl)-1-fluoro-5′,6′-dihydrospiro[chromeno[2,3-c]pyridine-5,4′-[1,3]thiazin]-7-yl)-5-chloro-3-methyl-2-pyridinecarboxamide], the IC50 in assay [1] amounted to 2.9 nM; in assay [2], 0.8 nM; in assay [3], 133000 nM.
